Values quoted from earlier work in patent publication US20030100493A1, “Sublingual use of inhibitors in the biosynthesis of cholesterol” (priority 2001, published 2003).

Experiments:
cholesterol synthesis = conditions: compared with the other statins
[1] = in vivo
[2] = sublingual; coronary patient

| Structure (SMILES) | passage of the blood brain barrier [1] | further results |
| --- | --- | --- |
| CC(C)c1nc(N(C)S(C)(=O)=O)nc(-c2ccc(F)cc2)c1/C=C/[C@@H](O)C[C@@H](O)CC(=O)O [Rosuvastatin] | – | potency as an inhibitor of cholesterol synthesis (cholesterol synthesis): significantly higher potency |
| CC[C@H](C)C(=O)O[C@H]1C[C@H](O)C=C2C=C[C@H](C)[C@H](CC[C@@H](O)C[C@@H](O)CC(=O)O)[C@H]21 [Pravastatin] | do not pass the blood brain barrier | – |
| CC(C)n1c(/C=C/C(O)CC(O)CC(=O)O)c(-c2ccc(F)cc2)c2ccccc21 (stereo not shown) [Fluvastatin] | do not pass the blood brain barrier | – |
| O=[N+]([O-])OCC(CO[N+](=O)[O-])O[N+](=O)[O-] [Nitroglycerin] | – | duration of effect (short lasting effect) [2]: five to ten |
